Patent US8142805B1, “Implantable devices including fixed tissues” (Clemson University Research Foundation, priority 2006, dated 2012)

Tested on: hyaluronidase
Experiment: Hyaluronic acid zymography of explant tissue capsules
Format: biochemical, rats
Details: developing buffer containing 1 M neomycin; HA gels
Method: Hyaluronic acid zymography studies were performed to study the inhibitory effect of neomycin on hyaluronidase. Tissue capsules from 3 weeks explanted treated aortic cusp samples were homogenized and used for gel zymography. Hyaluronic acid (HA) gels were made by incorporating 170 μg/ml of HA in 10% polyacrylamide gels. The tissue extracts were run at 90 Volts for 150 minutes. Protein molecular weight standards (10-150 kDa) were used to identify the molecular weights. Gels were incubated in the developing buffer (two for each sample type) and gels were also incubated in developing buffer containing 1 M neomycin. FIG. 8a and FIG. 8B show similar band intensities for active hyaluronidases in all groups. Thus, presence of more GAGs in Group 1 (Neomycin+EDC+GLUT) was not due to lower enzyme activity in this group as compared to other groups.

effect on hyaluronidase activity (zymography band density): inhibited enzyme activity
SMILES: NCC1OC(OC2C(CO)OC(OC3C(O)C(N)CC(N)C3OC3OC(CN)C(O)C(O)C3N)C2O)C(N)C(O)C1O (stereo not shown) [neomycin trisulfate]
